Laboratory results: patent publication US20170305943A1, “COMPOUNDS FOR THE TREATMENT OF BACTERIAL INFECTIONS” (priority 2014, published 2017)
In brackets after ≈: the same amount, converted by molar mass.

These compounds were tested on Clostridium difficile (Isolate ID ATCC 9689) (assay: Bacterial Assay: Determination of Antibacterial Activity (MIC, broth microdilution or agar dilution)). Conditions: Clostridioides difficile, ATCC9689, 48 h, read-out: C. difficile MIC Activity Range.
Type: cell-based
Procedure, shortened: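 MICs were set by CLSI broth microdilution or agar dilution for anaerobes, read visually after 48 hours at 37° C. under anaerobic gas packs. Medium was reinforced clostridial medium with 0.1% defibrinated horse blood; values are binned as A ≦1.01, B >1.0-4.0, C >4.0-16 μg/mL.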

SMILES | MIC [µg/mL]
NC(=O)c1c(F)ccc(OCCc2nc(-c3ccc(OC(F)(F)F)cc3)no2)c1F [Compound 117, 2,6-difluoro-3-(2-{3-[4-(trifluoromethoxy)phenyl]-1,2,4-oxadiazol-5-yl}ethoxy)benzamide] | < 1.01
NC(=O)c1c(F)ccc(OCCc2nc(-c3ccc(S(F)(F)(F)(F)F)cc3)no2)c1F [Compound 118, 2,6-difluoro-3-(2-{3-[4-(pentafluoro-lambda~6~- sulfanyl)phenyl]-1,2,4-oxadiazol-5-yl}ethoxy)benzamide] | < 1.01
N/C(=N\O)c1c(F)ccc(OCc2nc(-c3ccc(OC(F)(F)F)cc3)ns2)c1F [Compound 119, 2,6-difluoro-N′-hydroxy-3-({3-[4-(trifluoromethoxy)phenyl]-1,2,4-thiadiazol-5-yl}methoxy)benzenecarboximidamide] | 1 to 4 (≈ 2.24 to 8.96 µM)
NC(=O)c1c(F)ccc(OCc2nc(-c3ccc(S(F)(F)(F)(F)F)cc3)no2)c1F [Compound 120, 2,6-difluoro-3-({3-[4-(pentafluoro-lambda~6~- sulfanyl)phenyl]-1,2,4-oxadiazol-5-yl}methoxy)benzamide] | 4 to 16 (≈ 8.75 to 35 µM)
NC(=O)c1c(F)ccc(OCc2nc(-c3ccc(S(F)(F)(F)(F)F)cc3)co2)c1F [Compound 121, 2,6-difluoro-3-({4-[4-(pentafluoro-lambda~6~- sulfanyl)phenyl]-1,3-oxazol-2-yl}methoxy)benzamide] | 1 to 4 (≈ 2.19 to 8.77 µM)
NC(=O)c1c(F)ccc(NCc2nc(-c3ccc(C(F)(F)F)cc3)cs2)c1F [Compound 122, 2,6-difluoro-3-[({4-[4-(trifluoromethyl)phenyl]-1,3-thiazol-2-yl}methyl)amino]benzamide] | < 1.01
CCCCCCCCCNc1ccc(F)c(C(N)=O)c1F [Compound 123, 2,6-difluoro-3-(nonylamino)benzamide] | 1 to 4 (≈ 3.35 to 13.4 µM)
NC(=O)c1c(F)ccc(OCCCOc2ccc(Cl)cc2)c1F [Compound 124, 3-[3-(4-chlorophenoxy)propoxy]-2,6-difluorobenzamide] | 1 to 4 (≈ 2.93 to 11.7 µM)
NC(=O)c1c(F)ccc(OCCCOc2ccc(C(F)(F)F)cc2)c1F [Compound 125, 2,6-difluoro-3-{3-[4-(trifluoromethyl)phenoxy]propoxy}benzamide] | 1 to 4 (≈ 2.66 to 10.7 µM)
NC(=O)c1c(F)ccc(OCCCCOc2ccc(Cl)cc2Cl)c1F [Compound 137, 3-[4-(2,4-dichlorophenoxy)butoxy]-2,6-difluorobenzamide] | < 1.01
CCOC(=O)c1ccc(OCCCCOc2ccc(F)c(C(N)=O)c2F)cc1 [Compound 138, ethyl 4-[4-(3-carbamoyl-2,4-difluorophenoxy)butoxy]benzoate] | < 1.01
NC(=O)c1c(F)ccc(OCCCCOc2ccccc2Cl)c1F [Compound 139, 3-[4-(2-chlorophenoxy)butoxy]-2,6-difluorobenzamide] | 4 to 16 (≈ 11.2 to 45 µM)
NC(=O)c1c(F)ccc(OCCCCOc2cccc(Cl)c2)c1F [Compound 140, 3-[4-(3-chlorophenoxy)butoxy]-2,6-difluorobenzamide] | 1 to 4 (≈ 2.81 to 11.2 µM)
NC(=O)c1c(F)ccc(OCCCCOc2ccc(C(F)(F)F)cn2)c1F [Compound 141, 2,6-difluoro-3-(4-{[5-(trifluoromethyl)pyridin-2-yl]oxy}butoxy)benzamide] | < 1.01
NC(=O)c1c(F)ccc(OCCCCNc2ccc(Cl)cc2)c1F [Compound 142, 3-{4-[(4-chlorophenyl)amino]butoxy}-2,6-difluorobenzamide] | 1 to 4 (≈ 2.82 to 11.3 µM)
NC(=O)c1c(F)ccc(OCCCCOc2ccc(Cl)cn2)c1F [Compound 143, 3-{4-[(5-chloropyridin-2-yl)oxy]butoxy}-2,6-difluorobenzamide] | < 1.01
NC(=O)c1c(F)ccc(OCCCCOc2ccc(C(F)(F)F)nc2)c1F [Compound 144, 2,6-difluoro-3-(4-{[6-(trifluoromethyl)pyridin-3-yl]oxy}butoxy)benzamide] | 1 to 4 (≈ 2.56 to 10.2 µM)
NC(=O)c1c(F)ccc(OCCOCCOc2ccc(OC(F)(F)F)cc2)c1F [Compound 145, 2,6-difluoro-3-(2-{2-[4-(trifluoromethoxy)phenoxy]ethoxy}ethoxy) benzamide] | < 1.01
